From ChEMBL document CHEMBL5241092, “The antibacterial activity of fluoroquinolone derivatives: An update (2018-2021)” (2021)
Values after ≈ are worked out from the molar mass of the structure shown.

Key:
Staphylococcus aureus [1] = test: Antibacterial activity against Staphylococcus aureus; format: functional
Bacillus subtilis = test: Antibacterial activity against Bacillus subtilis; format: functional
Escherichia coli [2] = test: Antibacterial activity against Escherichia coli; format: functional
Pseudomonas aeruginosa [3] = test: Antibacterial activity against Pseudomonas aeruginosa; format: functional
Clostridioides difficile = test: Antibacterial activity against Clostridioides difficile; format: functional
Staphylococcus aureus [4] = test: Antibacterial activity against methicillin resistant Staphylococcus aureus; format: functional
Staphylococcus aureus [5] = test: Antibacterial activity against ciprofloxacin resistant Staphylococcus aureus; format: functional
Escherichia coli [6] = test: Antibacterial activity against ciprofloxacin resistant Escherichia coli; format: functional
Salmonella enteritidis = test: Antibacterial activity against Salmonella enteritidis; format: functional, Salmonella enterica subsp. enterica serovar Enteritidis; conditions: Salmonella enterica
[7] = test system: Staphylococcus epidermidis; test: Antibacterial activity against Staphylococcus epidermidis; format: functional
[8] = test system: Lactobacillus acidophilus; test: Antibacterial activity against Lactobacillus acidophilus; format: functional
Enterococcus faecalis = test: Antibacterial activity against Enterococcus faecalis; format: functional
[9] = test system: Yersinia pseudotuberculosis; test: Antibacterial activity against Yersinia pseudotuberculosis; format: functional
Listeria monocytogenes = test: Antibacterial activity against Listeria monocytogenes; format: functional
Klebsiella pneumoniae = test: Antibacterial activity against Klebsiella pneumoniae; format: functional
Bacillus cereus = test: Antibacterial activity against Bacillus cereus; format: functional
Citrobacter freundii = test: Antibacterial activity against Citrobacter freundii; format: functional
Vibrio cholerae = test: Antibacterial activity against Vibrio cholerae; format: functional
Shigella flexneri = test: Antibacterial activity against Shigella flexneri; format: functional
[10] = Antibacterial activity against Salmonella typhi; format: functional, Salmonella enterica subsp. enterica serovar Typhimurium; conditions: Salmonella enterica
Staphylococcus aureus [11] = test: Antibacterial activity against methicillin resistant Staphylococcus aureus clinical strain; format: functional
Staphylococcus aureus [12] = test: Antibacterial activity against methicillin resistant Staphylococcus aureus reference strain; format: functional
Escherichia coli [13] = test: Antibacterial activity against quinolone resistant Escherichia coli; format: functional
Pseudomonas aeruginosa [14] = test: Antibacterial activity against quinolone susceptible Pseudomonas aeruginosa; format: functional
Acinetobacter baumannii = test: Antibacterial activity against quinolone resistant Acinetobacter baumannii; format: functional

SMILES: O=C(O)c1cn(C2CC2)c2cc(N3CCN(Cn4nc(-c5cccnc5)oc4=S)CC3)c(F)cc2c1=O
- MIC (Staphylococcus aureus [1]): 0.031 µg/mL (≈ 0.0593 µM)
- MIC (Bacillus subtilis): 0.031 µg/mL (≈ 0.0593 µM)
- MIC (Escherichia coli [2]): 0.031 µg/mL (≈ 0.0593 µM)
- MIC (Pseudomonas aeruginosa [3]): 0.031 µg/mL (≈ 0.0593 µM)

SMILES: Cc1c(-c2cnc(N)c(C#N)c2)c(F)cc2c(=O)c(C(=O)O)cn(C3CC3)c12
- MIC50 (Clostridioides difficile): 0.125 µg/mL (≈ 0.33 µM)
- MIC90 (Clostridioides difficile): 0.5 µg/mL (≈ 1.32 µM)

SMILES: O=C(O)c1cn(C2CC2)c2cc(N3CCN(Cc4nc5ccc(Cl)cc5c(=O)[nH]4)CC3)c(F)cc2c1=O
- MIC (Staphylococcus aureus [1]): 0.016 µg/mL (≈ 0.0305 µM)
- MIC (Staphylococcus aureus [4]): 0.016 µg/mL (≈ 0.0305 µM)

SMILES: Cc1nc(Cl)nc(N2CCN(c3cc4c(cc3F)c(=O)c(C(=O)O)cn4C3CC3)CC2)c1N
- MIC (Staphylococcus aureus [5]): 7.4 µg/mL (≈ 15.6 µM)
- MIC (Escherichia coli [6]): 7.4 µg/mL (≈ 15.6 µM)

SMILES: CCn1cc(C(=O)O)c(=O)c2cc(F)c(N3CCN(C(=O)CN4C(=O)S/C(=C\c5ccccc5)C4=O)CC3)cc21
- MIC (Salmonella enteritidis): 0.5 µg/mL (≈ 0.886 µM)
- MIC (Escherichia coli [2]): 0.5 µg/mL (≈ 0.886 µM)
- MIC (Pseudomonas aeruginosa [3]): 0.5 µg/mL (≈ 0.886 µM)

SMILES: O=C(O)c1cn(C2CC2)c2cc(N3CCN(Cc4nc5cc(Cl)ccc5c(=O)[nH]4)CC3)c(F)cc2c1=O
- MIC (Staphylococcus aureus [1]): 0.016 µg/mL (≈ 0.0305 µM)
- MIC (Staphylococcus aureus [4]): 0.016 µg/mL (≈ 0.0305 µM)

SMILES: CC(=O)C(C(C)=O)C(=O)c1cn(C2CC2)c2cc(N3CCN(/N=N/c4nc(C)cc(C)n4)CC3)c(F)cc2c1=O
- MIC [7]: 0.015 µg/mL (≈ 0.0274 µM)
- MIC (Staphylococcus aureus [1]): 0.015 µg/mL (≈ 0.0274 µM)
- MIC (Bacillus subtilis): 0.015 µg/mL (≈ 0.0274 µM)

SMILES: CN[C@H](CC(C)C)C(=O)N[C@H]1C(=O)N[C@@H](CC(N)=O)C(=O)N[C@H]2C(=O)N[C@H]3C(=O)N[C@H](C(=O)N[C@H](C(=O)O)c4cc(O)cc(O)c4-c4cc3ccc4O)[C@H](O)c3ccc(c(Cl)c3)Oc3cc2cc(c3O[C@@H]2O[C@H](CO)[C@@H](O)[C@H](O)[C@H]2O[C@H]2C[C@](C)(N)[C@H](O)[C@H](C)O2)Oc2ccc(cc2Cl)[C@H]1O [VANCOMYCIN]
- MIC50 (Clostridioides difficile): 2 µg/mL (≈ 1.38 µM)
- MIC90 (Clostridioides difficile): 4 µg/mL (≈ 2.76 µM)

SMILES: COc1c(N2C[C@H]3CCCN(C(=O)c4ccc(Br)cc4)[C@H]3C2)c(F)cc2c(=O)c(C(=O)O)cn(C3CC3)c12
- MIC [8]: < 1.23 µg/mL
- MIC (Enterococcus faecalis): ≤ 1.23 µg/mL
- MIC [9]: < 1.23 µg/mL
- MIC (Listeria monocytogenes): ≤ 1.23 µg/mL
- MIC (Staphylococcus aureus [1]): ≤ 1.23 µg/mL
- MIC (Klebsiella pneumoniae): < 1.23 µg/mL
- MIC (Bacillus cereus): ≤ 1.23 µg/mL
- MIC (Escherichia coli [2]): < 1.23 µg/mL
- MIC (Pseudomonas aeruginosa [3]): < 1.23 µg/mL

SMILES: O=C(O)c1cn(C2CC2)c2cc(N3CCN(CN4c5ccccc5C(=O)N(c5ccc(Cl)cc5)C4c4ccccc4)CC3)c(F)cc2c1=O (stereo not drawn)
- MIC (Citrobacter freundii): 0.1 µg/mL (≈ 0.147 µM)
- MIC [7]: 0.1 µg/mL (≈ 0.147 µM)
- MIC (Vibrio cholerae): 0.1 µg/mL (≈ 0.147 µM)
- MIC (Staphylococcus aureus [1]): 0.1 µg/mL (≈ 0.147 µM)
- MIC (Klebsiella pneumoniae): 0.1 µg/mL (≈ 0.147 µM)
- MIC (Shigella flexneri): 0.1 µg/mL (≈ 0.147 µM)
- MIC [10]: 0.1 µg/mL (≈ 0.147 µM)
- MIC (Pseudomonas aeruginosa [3]): 0.1 µg/mL (≈ 0.147 µM)

SMILES: COc1c(N2C[C@H]3CCCN(C(=O)c4ccc([N+](=O)[O-])cc4)[C@H]3C2)c(F)cc2c(=O)c(C(=O)O)cn(C3CC3)c12
- MIC [8]: < 1.23 µg/mL
- MIC (Enterococcus faecalis): ≤ 1.23 µg/mL
- MIC [9]: < 1.23 µg/mL
- MIC (Listeria monocytogenes): ≤ 1.23 µg/mL
- MIC (Staphylococcus aureus [1]): ≤ 1.23 µg/mL
- MIC (Klebsiella pneumoniae): < 1.23 µg/mL
- MIC (Bacillus cereus): ≤ 1.23 µg/mL
- MIC (Escherichia coli [2]): < 1.23 µg/mL
- MIC (Pseudomonas aeruginosa [3]): < 1.23 µg/mL

SMILES: COc1cc(C=O)cc(CN2CCN(c3cc4c(cc3F)c(=O)c(C(=O)O)cn4C3CC3)CC2)c1O
- MIC (Staphylococcus aureus [11]): 0.012 µg/mL (≈ 0.0242 µM)
- MIC (Staphylococcus aureus [12]): 0.012 µg/mL (≈ 0.0242 µM)
- MIC (Klebsiella pneumoniae): 0.012 µg/mL (≈ 0.0242 µM)
- MIC (Escherichia coli [2]): 0.012 µg/mL (≈ 0.0242 µM)
- MIC (Pseudomonas aeruginosa [3]): 0.012 µg/mL (≈ 0.0242 µM)

SMILES: O=C(O)c1cn(-c2ccc(F)cc2)c2cc(N3CCN(Cc4nc5ccccc5c(=O)[nH]4)CC3)c(F)cc2c1=O
- MIC (Staphylococcus aureus [1]): 0.125 µg/mL (≈ 0.23 µM)
- MIC (Staphylococcus aureus [4]): 0.125 µg/mL (≈ 0.23 µM)

SMILES: CCn1cc(C(=O)O)c(=O)c2cc(F)c(N3CCNCC3)cc21 [NORFLOXACIN]
- MIC (Salmonella enteritidis): 0.0625 µg/mL (≈ 0.196 µM)
- MIC (Enterococcus faecalis): < 0.24 µg/mL
- MIC [9]: < 0.24 µg/mL
- MIC (Staphylococcus aureus [1]): < 0.24 µg/mL
- MIC (Bacillus cereus): < 0.24 µg/mL
- MIC [10]: 2.4 µg/mL (≈ 7.52 µM)
- MIC (Escherichia coli [2]): < 0.24 µg/mL
- MIC (Pseudomonas aeruginosa [3]): < 0.24 µg/mL

SMILES: C[C@H]1COc2c(N3CCN(C)CC3)c(F)cc3c(=O)c(C(=O)O)cn1c23.C[C@H]1COc2c(N3CCN(C)CC3)c(F)cc3c(=O)c(C(=O)O)cn1c23.O [LEVOFLOXACIN]
- MIC (Escherichia coli [13]): 4 µg/mL
- MIC (Pseudomonas aeruginosa [14]): 0.015 µg/mL
- MIC (Acinetobacter baumannii): 4 µg/mL
- MIC50 (Clostridioides difficile): 128 µg/mL
- MIC90 (Clostridioides difficile): > 128 µg/mL

SMILES: COc1c(N2C[C@H]3CCCN(C(=O)c4ccc(C)cc4)[C@H]3C2)c(F)cc2c(=O)c(C(=O)O)cn(C3CC3)c12
- MIC [8]: < 1.23 µg/mL
- MIC (Enterococcus faecalis): ≤ 1.23 µg/mL
- MIC [9]: < 1.23 µg/mL
- MIC (Listeria monocytogenes): ≤ 1.23 µg/mL
- MIC (Staphylococcus aureus [1]): ≤ 1.23 µg/mL
- MIC (Klebsiella pneumoniae): < 1.23 µg/mL
- MIC (Bacillus cereus): ≤ 1.23 µg/mL
- MIC (Escherichia coli [2]): < 1.23 µg/mL
- MIC (Pseudomonas aeruginosa [3]): < 1.23 µg/mL

SMILES: COc1c(N2C[C@H]3CCCN(C(=O)c4ccc(Cl)cc4)[C@H]3C2)c(F)cc2c(=O)c(C(=O)O)cn(C3CC3)c12
- MIC [8]: < 1.23 µg/mL
- MIC (Enterococcus faecalis): ≤ 1.23 µg/mL
- MIC [9]: < 1.23 µg/mL
- MIC (Listeria monocytogenes): ≤ 1.23 µg/mL
- MIC (Staphylococcus aureus [1]): ≤ 1.23 µg/mL
- MIC (Klebsiella pneumoniae): < 1.23 µg/mL
- MIC (Bacillus cereus): ≤ 1.23 µg/mL
- MIC (Escherichia coli [2]): < 1.23 µg/mL
- MIC (Pseudomonas aeruginosa [3]): < 1.23 µg/mL

SMILES: O=C(O)c1cn(C2CC2)c2cc(N3CCN(Cc4cc5ccccc5cc4O)CC3)c(F)cc2c1=O
- MIC (Staphylococcus aureus [11]): 0.2 µg/mL (≈ 0.41 µM)
- MIC (Staphylococcus aureus [12]): 0.08 µg/mL (≈ 0.164 µM)

SMILES: Cc1ncc([N+](=O)[O-])n1CCO [METRONIDAZOLE]
- MIC50 (Clostridioides difficile): 2 µg/mL (≈ 11.7 µM)
- MIC90 (Clostridioides difficile): 4 µg/mL (≈ 23.4 µM)

SMILES: O=C(O)c1cn(-c2ccc(F)cc2)c2cc(N3CCN(Cc4nc5ccc(Cl)cc5c(=O)[nH]4)CC3)c(F)cc2c1=O
- MIC (Staphylococcus aureus [1]): 0.125 µg/mL (≈ 0.216 µM)
- MIC (Staphylococcus aureus [4]): 0.125 µg/mL (≈ 0.216 µM)

SMILES: COc1c(N2CCN(/N=N/c3nc(C)cc(C)n3)CC2)c(F)cc2c(=O)c(C(=O)C(C(C)=O)C(C)=O)cn(C3CC3)c12
- MIC [7]: 0.015 µg/mL (≈ 0.026 µM)
- MIC (Staphylococcus aureus [1]): 0.015 µg/mL (≈ 0.026 µM)
- MIC (Bacillus subtilis): 0.015 µg/mL (≈ 0.026 µM)
